Data published in patent US11344009B2, “All sterile males of culicine mosquitoes: a method of creation” (priority 2014, dated 2022).

Key:
[1] = test system: wMel Wolbachia in Ae. albopictus strains (Hanoi 1 and Laos2); test: Dox challenge of Wolbachia trans-infected lines, PCR re-test for presence of Wolbachia (wsp primers 81F/691R); format: in vivo, Aedes albopictus; settings: for Pupae (number from 50 3rd-4th larvae on Dox) / 3 day old adult (on Dox), number: Dox 30 mg/L; for 3 day old adult (on Dox), number: 4-5 days from third larvae to 3 day old adults; for 81F/691R PCR test, number with Wolbachia / 81F/691R PCR test, share with Wolbachia: after Dox 30 mg/L challenge
Method: Ae. albopictus strains (Hanoi 1 and Laos2) were trans-infected with Wolbachia from a Drosophila line (Oregon-R). This fly carries wMel Wolbachia. Drosophila embryos were collected as mentioned above. 1-2 day old virgin females were anaesthetized and microinjected directly in the thorax. […] These lines were maintained at a standard condition and challenged with the presence of Dox (30 mg/L) in 4-5 days from the third larvae to 3 day old adults. They were PCR re-tested for the presence of Wolbachia after the challenge using universal wsp primers 81F and 691R^38.

[2] = test system: Ae. aegypti strain (Hanoi1); test: Transient expression of long dsmRNA Tra-2 RNAi construct (AaKLC2.1-long-02) injected into embryos; female lethality induced by different Dox concentrations; format: in vivo, Aedes aegypti; settings: for Hatched rate (hatched/injected embryos): 500 embryos injected with AaKLC2.1-long-02
Description: In this example, we show the transient expression of a Tra-2 RNAi construct which created long dsmRNAs. The detail method to create this construct was described in Example 4. The promoter driving rtTA protein was AaKLC2.1. In the presence of doxycycline (Dox), Tet-On Advanced binds to the tetracycline response element in pTre-tight, and produces high-level tran-scription of the downstream gene. Ae. aegypti strain (Hanoi1) was fed on blood containing three different Dox concentrations to produce eggs containing different Dox doses (mg/litre). The construct named AaKLC2.1-long-02 after Maxiprep purification was diluted in 1^x injection buffer at 1.6 μg/μl. Embryos were desiccated briefly in 50 sec and stuck into a plastic cover slip via a piece of double sticky tape. The Voltalef oil was used to cover the embryos. After injection, the cover slip was then immediately transferred into a cover slip staining rack which was kept in a sealed plastic box with 100% humidity at 27° C. for 3-4 days and then hatched in Dox deoxygenated water. 500 embryos were injected in each Dox concentration. Larvae were reared under standard conditions. Three different Dox concentrations which were equivalent to the concentrations in blood meals were added to the rearing water. The sex ratio among survivors of each Dox concentration were shown in the below table.

[3] = test system: Ae. aegypti strain Hanoi1 transformed with Tra-2 RNAi (long dsmRNA) construct; test: Outcross of Dox-induced homozygous Tra-2 RNAi transgenic males with wild type virgin females, sex ratio of the crosses; format: in vivo, Aedes aegypti
Method: (§1) The Ae. aegypti strain named Hanoi1 was transformed with a Tra-2 RNAi (long dsmRNA) construct. This construct was assembled with rtTA(pTet-on advanced) and pTre-tight regulatory system as mentioned in Example 1. The strain was challenged with Dox three different concentrations (0.3 mg/L; 3 mg/L and 30 mg/L) between the third larvae stage and 3 day old adult. The males from each Dox concentration challenge were divided into two groups; one group was Q-PCR to reveal the knockdown level of Tra-2. The other group was outcrossed with wild type females. Total RNA from Hanoi 1 wild type males and Tra-2 RNAi/Hanoi 1 transgenic males were isolated in pools of 5 males in 3 biological replicates. The primers used for Actin5C (endogenous reference gene) were F: (5′-[…]-3′) (SEQ ID NO: 53) and R: (5′-[…]-3′) (SEQ ID NO: 54) which produced a 125 bp fragment. Primers used for amplifying Tra-2, which produced a 125 bp fragment nearby the Tra-2 RNAi target site, were: Forward: (5′ […] 3′) (SEQ ID NO: 55) and Reverse: (5′ […] 3′) (SEQ ID NO: 56). Three biological replicates were carried out in each Dox condition. The knockdown of expression levels were calculated by the relative standard curve method (Applied Biosystems), in which Act5C as an endogenous reference and wild type Hanoi 1 as an exogenous calibrator. PCR cycle was 95° C. for 15 mins; 45 cycles of 10 sec at 95° C., 10 sec at XC, 20 sec at 72° C., plate reading. X is annealing temperature, of which 59° C. for the reference gene Actin5C and 55° C. was used for Tra-2 primers. […] 0.3 mg/L caused a slight difference in comparison with wild type (96.98% wild type). […] See details in FIG. 2.
10 homozygous males (3 day old) from each concentration were crossed with 10 wild type virgin females.

Tra-2 = test: Q-PCR of Tra-2 knockdown level in Tra-2 RNAi/Tet-on transgenic males induced by Dox; format: in vivo, Aedes aegypti
Method: as §1

C[C@H]1c2cccc(O)c2C(=O)C2=C(O)[C@]3(O)C(=O)C(C(N)=O)=C(O)[C@@H](N(C)C)[C@@H]3[C@@H](O)[C@@H]21 [Dox, Doxycycline]
Pupae (number from 50 3rd-4th larvae on Dox) ([1]; wMel/Ae.albopictus Hanoi 1): 50 | 3 day old adult (on Dox), number ([1]; wMel/Ae.albopictus Hanoi 1): 49 | 81F/691R PCR test, number with Wolbachia ([1]; wMel/Ae.albopictus Hanoi 1): 49 | 81F/691R PCR test, share with Wolbachia ([1]; wMel/Ae.albopictus Hanoi 1): 100% | Pupae (number from 50 3rd-4th larvae on Dox) ([1]; wMel/Ae.albopictus Laos2): 50 | 3 day old adult (on Dox), number ([1]; wMel/Ae.albopictus Laos2): 50 | 81F/691R PCR test, number with Wolbachia ([1]; wMel/Ae.albopictus Laos2): 50 | 81F/691R PCR test, share with Wolbachia ([1]; wMel/Ae.albopictus Laos2): 100% | Hatched rate ([2]; 0.3 mg of Dox/L): (24.4) % | Hatched rate (hatched/injected embryos) ([2]; 0.3 mg of Dox/L): 122/500 | Hatched rate ([2]; 3 mg of Dox/L): (18.6) % | Hatched rate (hatched/injected embryos) ([2]; 3 mg of Dox/L): 93/500 | Hatched rate ([2]; 30 mg of Dox/L): (14.8) % | Hatched rate (hatched/injected embryos) ([2]; 30 mg of Dox/L): 74/500 | Hatch rate (value in brackets) ([3]; males induced at 0.3 mg/L Dox): 95.40 | Male ratio (value in brackets) ([3]; males induced at 0.3 mg/L Dox): 51.53 | Hatch rate (value in brackets) ([3]; males induced at 3 mg/L Dox): 90.60 | Male ratio (value in brackets) ([3]; males induced at 3 mg/L Dox): 64.88 | Hatch rate (value in brackets) ([3]; males induced at 30 mg/L Dox): 91.60 | Male ratio (value in brackets) ([3]; males induced at 30 mg/L Dox): 93.47 | Expression level of Tra-2 in males (Tra-2; Dox 0.3 mg/L, third larvae stage to 3 day old adult): 96.98 % wild type | Expression level of Tra-2 in males (Tra-2; Dox 3 mg/L, third larvae stage to 3 day old adult): 73.7 % wild type | Expression level of Tra-2 in males (Tra-2; Dox 30 mg/L, after 5 days treatment): 33.26 % wild type
